Measurements as given in patent publication US20120122860A1, “SOLID FORMS OF SULFONAMIDES AND AMINO ACIDS” (Plexxikon, Inc., priority 2009, published 2012).

Experiments:
[1] = target: B-Raf (Homo sapiens, UniProt P15056); assay: Kinase activity assay, B-Raf; type: biochemical; settings: read-out: activity toward kinase B-Raf, IC50
[2] = target: B-Raf V600E (Homo sapiens, UniProt P15056, V600E); assay: Kinase activity assay, B-Raf V600E; type: biochemical; settings: read-out: activity toward kinase B-Raf V600E, IC50
[3] = target: Fms (Homo sapiens, UniProt P07333); assay: Kinase activity assay, Fms
[4] = target: Kdr (Homo sapiens, UniProt P35968); assay: Kinase activity assay, Kdr
[5] = target: Kit (Homo sapiens, UniProt P10721); assay: Kinase activity assay, Kit
[6] = target: Src (Homo sapiens, UniProt P12931); assay: Kinase activity assay, Src
[7] = target: T1, A-Raf (Homo sapiens, UniProt P10398); assay: Kinase activity assay, A-Raf
T1 sequence (P10398 1-606): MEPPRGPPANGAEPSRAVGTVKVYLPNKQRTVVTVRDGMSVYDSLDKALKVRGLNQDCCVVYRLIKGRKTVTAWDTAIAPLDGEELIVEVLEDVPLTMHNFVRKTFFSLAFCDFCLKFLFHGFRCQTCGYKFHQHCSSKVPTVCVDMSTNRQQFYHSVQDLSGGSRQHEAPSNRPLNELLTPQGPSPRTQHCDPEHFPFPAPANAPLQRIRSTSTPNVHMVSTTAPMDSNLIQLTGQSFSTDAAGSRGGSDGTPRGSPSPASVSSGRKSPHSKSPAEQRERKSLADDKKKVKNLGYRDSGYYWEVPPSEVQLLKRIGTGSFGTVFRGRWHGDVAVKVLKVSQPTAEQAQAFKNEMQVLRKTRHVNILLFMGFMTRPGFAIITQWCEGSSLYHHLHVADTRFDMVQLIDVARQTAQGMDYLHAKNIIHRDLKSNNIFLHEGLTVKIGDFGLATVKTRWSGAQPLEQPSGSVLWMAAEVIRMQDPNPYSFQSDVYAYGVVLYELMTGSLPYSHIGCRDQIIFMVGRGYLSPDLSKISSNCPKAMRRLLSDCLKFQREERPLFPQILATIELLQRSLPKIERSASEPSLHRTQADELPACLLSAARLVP

[8] = target: C-Raf (Homo sapiens, UniProt P04049); assay: Kinase activity assay, C-Raf
[9] = target: MAP4K4 (Homo sapiens, UniProt O95819); assay: Kinase activity assay, MAP4K4

Measured: IC50

Chain of B-Raf (P15056 whole entry): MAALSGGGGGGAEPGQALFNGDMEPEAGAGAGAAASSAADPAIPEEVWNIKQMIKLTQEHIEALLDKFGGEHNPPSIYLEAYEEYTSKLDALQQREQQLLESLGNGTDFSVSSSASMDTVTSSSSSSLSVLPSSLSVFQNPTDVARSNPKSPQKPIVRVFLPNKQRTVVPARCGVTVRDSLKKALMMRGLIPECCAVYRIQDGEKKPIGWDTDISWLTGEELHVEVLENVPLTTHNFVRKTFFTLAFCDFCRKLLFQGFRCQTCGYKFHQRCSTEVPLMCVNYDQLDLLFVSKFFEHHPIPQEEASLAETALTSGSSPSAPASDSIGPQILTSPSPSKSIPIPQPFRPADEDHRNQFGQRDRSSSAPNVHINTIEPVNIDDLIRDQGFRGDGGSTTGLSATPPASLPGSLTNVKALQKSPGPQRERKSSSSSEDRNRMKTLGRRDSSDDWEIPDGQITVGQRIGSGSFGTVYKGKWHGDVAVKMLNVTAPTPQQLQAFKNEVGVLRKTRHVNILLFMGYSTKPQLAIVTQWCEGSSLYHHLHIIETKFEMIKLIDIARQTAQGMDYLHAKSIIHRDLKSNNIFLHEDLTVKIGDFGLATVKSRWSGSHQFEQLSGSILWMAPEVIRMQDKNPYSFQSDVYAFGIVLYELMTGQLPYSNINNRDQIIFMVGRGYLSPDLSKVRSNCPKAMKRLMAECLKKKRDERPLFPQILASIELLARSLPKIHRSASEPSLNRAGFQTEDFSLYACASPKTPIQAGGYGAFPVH
Chain of Kdr (P35968 20-1356): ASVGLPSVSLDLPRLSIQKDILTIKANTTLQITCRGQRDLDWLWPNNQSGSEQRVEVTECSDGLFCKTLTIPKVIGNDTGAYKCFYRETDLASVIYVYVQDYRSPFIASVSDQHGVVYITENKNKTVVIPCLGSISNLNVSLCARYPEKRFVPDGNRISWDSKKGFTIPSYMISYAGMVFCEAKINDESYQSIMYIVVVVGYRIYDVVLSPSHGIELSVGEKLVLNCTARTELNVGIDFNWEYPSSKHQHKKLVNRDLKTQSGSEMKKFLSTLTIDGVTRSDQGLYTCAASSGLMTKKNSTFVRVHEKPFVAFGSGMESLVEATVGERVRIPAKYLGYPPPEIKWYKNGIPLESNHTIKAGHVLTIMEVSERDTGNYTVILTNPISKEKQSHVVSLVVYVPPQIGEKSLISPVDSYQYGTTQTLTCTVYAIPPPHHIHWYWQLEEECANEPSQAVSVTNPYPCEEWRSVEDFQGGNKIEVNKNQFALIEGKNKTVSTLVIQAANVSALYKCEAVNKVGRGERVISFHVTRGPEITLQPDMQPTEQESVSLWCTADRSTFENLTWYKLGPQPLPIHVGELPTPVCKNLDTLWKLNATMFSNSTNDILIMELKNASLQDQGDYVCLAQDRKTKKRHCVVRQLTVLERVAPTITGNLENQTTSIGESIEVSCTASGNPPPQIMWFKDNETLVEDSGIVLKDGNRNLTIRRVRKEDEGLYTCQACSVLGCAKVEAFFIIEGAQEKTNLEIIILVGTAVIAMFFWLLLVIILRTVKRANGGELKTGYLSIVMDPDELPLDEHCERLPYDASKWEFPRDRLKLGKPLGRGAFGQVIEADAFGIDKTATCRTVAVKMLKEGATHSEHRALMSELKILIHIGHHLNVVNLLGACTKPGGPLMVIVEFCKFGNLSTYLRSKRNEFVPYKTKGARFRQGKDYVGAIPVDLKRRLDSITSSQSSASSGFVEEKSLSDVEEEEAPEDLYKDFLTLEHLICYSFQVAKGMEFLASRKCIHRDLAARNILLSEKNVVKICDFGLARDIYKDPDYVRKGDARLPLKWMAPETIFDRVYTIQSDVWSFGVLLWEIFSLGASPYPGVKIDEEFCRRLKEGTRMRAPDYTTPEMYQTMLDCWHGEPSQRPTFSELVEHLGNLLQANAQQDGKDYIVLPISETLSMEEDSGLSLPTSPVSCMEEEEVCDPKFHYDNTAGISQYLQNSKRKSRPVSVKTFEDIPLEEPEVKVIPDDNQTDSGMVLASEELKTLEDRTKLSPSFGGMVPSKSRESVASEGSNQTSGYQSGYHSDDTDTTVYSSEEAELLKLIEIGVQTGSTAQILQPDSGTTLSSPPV
Chain of MAP4K4 (O95819 whole entry): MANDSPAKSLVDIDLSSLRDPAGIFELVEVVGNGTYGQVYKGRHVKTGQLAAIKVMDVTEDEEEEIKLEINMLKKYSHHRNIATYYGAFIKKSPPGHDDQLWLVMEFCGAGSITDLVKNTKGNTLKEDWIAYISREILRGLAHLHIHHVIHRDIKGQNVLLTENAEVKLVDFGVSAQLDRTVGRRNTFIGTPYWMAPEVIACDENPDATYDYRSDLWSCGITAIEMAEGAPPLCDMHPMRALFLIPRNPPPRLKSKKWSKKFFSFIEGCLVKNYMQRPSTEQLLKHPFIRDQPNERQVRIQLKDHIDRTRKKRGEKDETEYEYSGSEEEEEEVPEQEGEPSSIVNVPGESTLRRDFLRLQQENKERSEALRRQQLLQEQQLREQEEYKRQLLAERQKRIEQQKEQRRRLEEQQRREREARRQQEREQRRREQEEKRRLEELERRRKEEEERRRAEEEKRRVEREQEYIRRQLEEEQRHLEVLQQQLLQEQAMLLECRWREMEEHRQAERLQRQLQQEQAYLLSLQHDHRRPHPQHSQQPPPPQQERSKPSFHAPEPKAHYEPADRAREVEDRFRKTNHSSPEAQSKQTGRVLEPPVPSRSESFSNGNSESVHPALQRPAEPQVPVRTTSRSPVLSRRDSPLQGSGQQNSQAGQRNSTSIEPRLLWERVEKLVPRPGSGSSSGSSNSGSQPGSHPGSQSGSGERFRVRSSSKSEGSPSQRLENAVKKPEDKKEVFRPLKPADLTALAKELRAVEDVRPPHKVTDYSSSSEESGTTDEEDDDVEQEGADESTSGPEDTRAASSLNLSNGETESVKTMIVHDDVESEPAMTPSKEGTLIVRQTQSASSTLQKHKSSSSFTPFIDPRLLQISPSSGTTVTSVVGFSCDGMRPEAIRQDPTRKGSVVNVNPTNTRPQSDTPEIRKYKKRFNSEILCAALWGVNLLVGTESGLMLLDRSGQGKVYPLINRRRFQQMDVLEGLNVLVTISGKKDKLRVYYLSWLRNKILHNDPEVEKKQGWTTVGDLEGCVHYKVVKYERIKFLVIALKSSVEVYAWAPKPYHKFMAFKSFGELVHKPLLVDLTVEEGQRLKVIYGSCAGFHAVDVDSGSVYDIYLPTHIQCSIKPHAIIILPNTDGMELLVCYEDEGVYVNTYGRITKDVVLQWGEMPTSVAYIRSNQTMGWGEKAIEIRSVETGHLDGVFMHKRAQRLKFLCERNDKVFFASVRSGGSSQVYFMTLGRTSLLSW
Chain of Kit (P10721 26-976): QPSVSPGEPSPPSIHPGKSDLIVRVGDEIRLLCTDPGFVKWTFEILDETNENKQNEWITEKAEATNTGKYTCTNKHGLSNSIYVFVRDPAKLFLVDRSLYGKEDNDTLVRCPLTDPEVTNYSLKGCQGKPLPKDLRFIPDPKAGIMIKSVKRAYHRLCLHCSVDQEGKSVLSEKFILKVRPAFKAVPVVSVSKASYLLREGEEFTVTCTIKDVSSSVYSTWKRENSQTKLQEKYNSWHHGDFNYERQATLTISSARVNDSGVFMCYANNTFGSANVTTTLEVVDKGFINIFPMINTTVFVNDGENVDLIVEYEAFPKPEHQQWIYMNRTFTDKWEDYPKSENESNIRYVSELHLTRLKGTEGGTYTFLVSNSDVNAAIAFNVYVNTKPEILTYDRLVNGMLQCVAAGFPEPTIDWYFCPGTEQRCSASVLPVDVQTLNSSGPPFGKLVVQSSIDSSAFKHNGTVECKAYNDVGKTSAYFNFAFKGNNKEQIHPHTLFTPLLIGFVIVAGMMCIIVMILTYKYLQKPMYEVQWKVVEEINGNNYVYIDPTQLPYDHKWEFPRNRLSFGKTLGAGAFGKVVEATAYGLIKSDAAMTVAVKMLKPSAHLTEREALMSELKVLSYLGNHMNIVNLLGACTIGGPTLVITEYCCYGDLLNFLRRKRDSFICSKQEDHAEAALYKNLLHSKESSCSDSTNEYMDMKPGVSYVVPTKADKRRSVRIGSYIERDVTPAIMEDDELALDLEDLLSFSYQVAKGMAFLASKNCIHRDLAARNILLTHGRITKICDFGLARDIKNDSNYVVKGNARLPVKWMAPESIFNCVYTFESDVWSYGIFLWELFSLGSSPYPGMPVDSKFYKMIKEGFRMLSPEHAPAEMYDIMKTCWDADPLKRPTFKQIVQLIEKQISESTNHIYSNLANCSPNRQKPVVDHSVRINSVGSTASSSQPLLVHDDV
Chain of B-Raf V600E (P15056 whole entry V600E): as the sequence (P15056 whole entry) above, with V600E counted along it
Chain of C-Raf (P04049 whole entry): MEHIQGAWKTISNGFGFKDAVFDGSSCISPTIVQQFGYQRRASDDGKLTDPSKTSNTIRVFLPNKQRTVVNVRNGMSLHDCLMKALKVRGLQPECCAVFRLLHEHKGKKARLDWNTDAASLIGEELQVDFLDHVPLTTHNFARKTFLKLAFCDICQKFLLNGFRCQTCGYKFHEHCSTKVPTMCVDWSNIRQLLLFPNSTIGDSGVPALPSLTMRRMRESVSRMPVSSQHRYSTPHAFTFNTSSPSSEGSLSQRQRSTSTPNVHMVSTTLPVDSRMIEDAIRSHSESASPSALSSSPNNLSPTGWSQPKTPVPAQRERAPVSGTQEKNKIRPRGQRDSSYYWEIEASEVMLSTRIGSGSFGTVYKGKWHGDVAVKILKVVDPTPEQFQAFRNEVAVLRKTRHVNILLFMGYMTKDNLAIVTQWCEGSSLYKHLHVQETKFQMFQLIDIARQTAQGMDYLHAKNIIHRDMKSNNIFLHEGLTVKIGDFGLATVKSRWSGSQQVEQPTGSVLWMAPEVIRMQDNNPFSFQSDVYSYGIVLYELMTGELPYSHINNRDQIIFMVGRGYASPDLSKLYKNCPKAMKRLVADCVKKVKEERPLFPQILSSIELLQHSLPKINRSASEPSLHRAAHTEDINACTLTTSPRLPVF

CCCS(=O)(=O)Nc1ccc(F)c(C(=O)c2c[nH]c3ncc(-c4ccc(OCCN5CCOCC5)nc4)cc23)c1F [P-2232, Propane-1-sulfonic acid (2,4-difluoro-3-{5-[6-(2-morpholin-4-yl-ethoxy)-pyridin-3-yl]-1H-pyrrolo[2,3-b]pyridine-3-carbonyl}-phenyl)-amide]
≤ 10 µM: all assays above

Cc1cnc2[nH]cc(C(=O)c3c(F)ccc(NS(=O)(=O)c4cc(F)ccc4F)c3F)c2c1 [P-2015, N-[2,4-Difluoro-3-(5-methyl-1H-pyrrolo[2,3-b]pyridine-3-carbonyl)-phenyl]-2,5-difluoro-benzenesulfonamide]
≤ 10 µM: all assays above

O=C(c1c(F)ccc(NS(=O)(=O)c2cc(F)ccc2F)c1F)c1c[nH]c2nccc(Cl)c12 [P-2018, N-[3-(4-Chloro-1H-pyrrolo[2,3-b]pyridine-3-carbonyl)-2,4-difluoro-phenyl]-2,5-difluoro-benzenesulfonamide]
≤ 10 µM: all assays above

COc1cnc2[nH]cc(C(=O)c3c(F)ccc(NS(=O)(=O)c4cc(F)ccc4F)c3F)c2c1 [P-2010, N-[2,4-Difluoro-3-(5-methoxy-1H-pyrrolo[2,3-b]pyridine-3-carbonyl)-phenyl]-2,5-difluoro-benzenesulfonamide]
≤ 10 µM: all assays above

O=C(c1c(F)ccc(NS(=O)(=O)c2cc(F)ccc2F)c1F)c1c[nH]c2ncc(Cl)cc12 [P-2002, N-[3-(5-Chloro-1H-pyrrolo[2,3-b]pyridine-3-carbonyl)-2,4-difluoro-phenyl]-2,5-difluoro-benzenesulfonamide]
≤ 10 µM: all assays above

CCCS(=O)(=O)Nc1ccc(F)c(C(=O)c2c[nH]c3ncc(-c4ccc(OCCN5CCCC5)nc4)cc23)c1F [P-2233, Propane-1-sulfonic acid (2,4-difluoro-3-{5-[6-(2-pyrrolidin-1-yl-ethoxy)-pyridin-3-yl]-1H-pyrrolo[2,3-b]pyridine-3-carbonyl}-phenyl)-amide]
≤ 10 µM: all assays above

CCCc1ccc(-c2cnc3[nH]cc(C(=O)c4c(F)ccc(NS(=O)(=O)CCC)c4F)c3c2)cn1 [P-2224, Propane-1-sulfonic acid {2,4-difluoro-3-[5-(6-propyl-pyridin-3-yl)-1H-pyrrolo[2,3-b]pyridine-3-carbonyl]-phenyl}-amide]
≤ 10 µM: all assays above
